Laboratory results: patent US20250281483A1, “TRANSCRIPTION FACTOR EB ACTIVATORS AND USES THEREOF” (Astellas Engineered Small Molecules US, Incorporated, priority 2022, published 2025)
pEC50: −log10 of the molar value.

Target: T1, TFEB (Homo sapiens, UniProt P19484)
T1 sequence (P19484 1-476): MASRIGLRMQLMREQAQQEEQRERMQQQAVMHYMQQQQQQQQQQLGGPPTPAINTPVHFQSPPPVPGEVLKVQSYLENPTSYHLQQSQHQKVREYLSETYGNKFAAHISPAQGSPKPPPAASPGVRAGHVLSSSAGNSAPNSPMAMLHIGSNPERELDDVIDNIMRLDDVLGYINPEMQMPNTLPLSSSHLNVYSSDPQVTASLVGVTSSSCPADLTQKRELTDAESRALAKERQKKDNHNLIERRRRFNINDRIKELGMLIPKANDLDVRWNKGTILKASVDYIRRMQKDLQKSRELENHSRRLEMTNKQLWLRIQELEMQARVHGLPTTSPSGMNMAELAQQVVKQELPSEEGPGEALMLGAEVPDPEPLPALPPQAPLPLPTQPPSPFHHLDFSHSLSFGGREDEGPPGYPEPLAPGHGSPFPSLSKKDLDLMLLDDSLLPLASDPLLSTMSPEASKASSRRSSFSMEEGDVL
Assay: Tfeb-Translocation Assay HEK-293T-oEX-Tfeb-GFP Cell Line
Assay type: cell-based
Conditions: HEK-293T-oEX-TFEB-GFP cells; translocation positive cells ratio; read-out: TFEB Translocation EC50
Method: Tfeb-Translocation Assay HEK-293T-oEX-Tfeb-GFP Cell Line
• 1). Added 2×10^6 cell into a T75 flask with 15 mL DiVEM medium (with 10% FBS, 1% PS, 1×GLUTAMAX, 1×MEM NEAA, 1×HEPES Buffer Solution and 5 ug/mL blasticidin). • 2). Culturing for 48-72 hours. Cells in logarithmic growth phase were taken for experiment. The other cells were passaged as described in step 1. • 3). Seeded 1×10^4 cells/30 μL/well into 384-well plate (BD 356663). Cultured overnight at 37° C. & 5% CO2 incubator. • 4). Note: Used cells <10 passage
• 1). Compounds were firstly diluted by DMSO to the stock needed (10 mM), and aliquoted and stored at −20° C. • 2). Took one aliquot each time and made 3-fold or 2-fold dilutions as indicated, total 10 doses plus one DMSO control well in the source plate. • 3). Added 150 or 90 nL/well compounds solution to the assay plate by ECHO and incubated for 6 or 18 hours respectively at 37° C. & 5% CO2 incubator.
• 1). Added 30 uL 8% PFA into the wells and incubated 20 min at room temperature. • 2). Discarded the medium, washed the wells twice with DPBS to eliminate foam and bubbles in the well.
• 1). Diluted Hoechest-333824 in DPBS to get 2 μg/mL solution and added 30 uL/well into assay plate, incubated at room temperature for 20 mins. • 2). Discarded the supernatant, washed the wells twice with DPBS to eliminate foam and bubbles in the well. Then added DPBS 20 uL/well.
3). Scanned Plate by Operetta.
• 1). Reference compound: Torin 1 • 2). Test compounds: C1, C2, C3, C4, C5, C6. • 3). Diluted compounds in 384 LDV-dilution plate according to the dilution plate map • 4). Compounds starting concentration: Torin 1: 300 nM and Test compounds: 50 uM.
• 1). Selected all nucleus by Operetta as ‘All Cells’ • 2). Calculated the EGFP average intensity inside the Nucleus region. • 3). Selected population that the EGFP mean intensity inside the Nucleus region>background as the EGFP-positive cells • 4). Selected the Surrounding region of the nucleus and calculated the EGFP mean intensity of the region • 5). Inside the EGFP-positive cell population, selected the cells with EGFP mean intensity inside the Nucleus region/the EGFP mean intensity inside the surrounding region=1.2 (This ratio could be slightly adjusted from time to time) as the Translocation positive cell. • 6). Outputted the ratio of Translocation positive cell/EGFP-positive cells as the Translocation Positive Ratio. • 7). Each time set the ratio of DMSO group (Control Group) as ˜15% and then normalized the compound group to the DMSO group.

Compound | pEC50
Cc1nc2ccn(Cc3ccccc3)c(=O)c2cc1C(=O)NCc1ccc(F)cn1 [Example 35, 6-benzyl-N-((5-fluoropyridin-2-yl)methyl)-2-methyl-5-oxo-5,6-dihydro-1,6-naphthyridine-3-carboxamide] | > 7.00
Cc1nc2ccn(Cc3ccccc3)c(=O)c2cc1C(=O)NCc1ncccc1F [Example 36, 6-benzyl-N-((3-fluoropyridin-2-yl)methyl)-2-methyl-5-oxo-5,6-dihydro-1,6-naphthyridine-3-carboxamide] | 5.00 to 6.00
Cc1nc2ccn(C(C)c3ccccc3)c(=O)c2cc1C(=O)NCc1ccccn1 (stereo not shown) [Example 37, 2-methyl-5-oxo-6-(1-phenylethyl)-N-(pyridin-2-ylmethyl)-5,6-dihydro-1,6-naphthyridine-3-carboxamide] | 6.00 to 7.00
Cc1nc2ccn(Cc3ccccc3)c(=O)c2cc1C(=O)NCc1ccc(Cl)cn1 [Example 38, 6-benzyl-N-((5-chloropyridin-2-yl)methyl)-2-methyl-5-oxo-5,6-dihydro-1,6-naphthyridine-3-carboxamide] | > 7.00
Cc1nc2ccn(Cc3ccccc3)c(=O)c2cc1C(=O)NCc1cc(F)ccn1 [Example 39, 6-benzyl-N-((4-fluoropyridin-2-yl)methyl)-2-methyl-5-oxo-5,6-dihydro-1,6-naphthyridine-3-carboxamide] | 6.00 to 7.00
Cc1nc2ccn(CC3CCCCC3)c(=O)c2cc1C(=O)NCc1ccccn1 [Example 40, 6-(cyclohexylmethyl)-2-methyl-5-oxo-N-(pyridin-2-ylmethyl)-5,6-dihydro-1,6-naphthyridine-3-carboxamide] | ≤ 5.00
Cc1nc2ccn(Cc3ccccn3)c(=O)c2cc1C(=O)NCc1ccccn1 [Example 41, 2-methyl-5-oxo-N,6-bis(pyridin-2-ylmethyl)-5,6-dihydro-1,6-naphthyridine-3-carboxamide] | 5.00 to 6.00
CNC(=O)c1cc2c(=O)n(Cc3ccccc3)ccc2nc1C [Example 42, 6-benzyl-N,2-dimethyl-5-oxo-5,6-dihydro-1,6-naphthyridine-3-carboxamide] | ≤ 5.00
Cc1nc2ccn(Cc3ccccc3)c(=O)c2cc1C(=O)NCc1ccc(C(N)=O)cc1 [Example 43, 6-benzyl-N-(4-carbamoylbenzyl)-2-methyl-5-oxo-5,6-dihydro-1,6-naphthyridine-3-carboxamide] | ≤ 5.00
Cc1nc2ccn(Cc3ccc(F)cn3)c(=O)c2cc1C(=O)NCc1ccccn1 [Example 44, 6-((5-fluoropyridin-2-yl)methyl)-2-methyl-5-oxo-N-(pyridin-2-ylmethyl)-5,6-dihydro-1,6-naphthyridine-3-carboxamide] | 5.00 to 6.00
Cc1nc2ccn(C(C)C)c(=O)c2cc1C(=O)NCc1ccccn1 [Example 45, 6-isopropyl-2-methyl-5-oxo-N-(pyridin-2-ylmethyl)-5,6-dihydro-1,6-naphthyridine-3-carboxamide] | 6.00 to 7.00
Cc1nc2ccn(-c3ccccc3)c(=O)c2cc1C(=O)NCc1ccccn1 [Example 46, 2-methyl-5-oxo-6-phenyl-N-(pyridin-2-ylmethyl)-5,6-dihydro-1,6-naphthyridine-3-carboxamide] | 5.00 to 6.00
Cc1nc2ccn(Cc3ccc(F)cc3)c(=O)c2cc1C(=O)NCc1ccccn1 [Example 47, 6-(4-fluorobenzyl)-2-methyl-5-oxo-N-(pyridin-2-ylmethyl)-5,6-dihydro-1,6-naphthyridine-3-carboxamide] | > 7.00
Cc1cnc(Cn2ccc3nc(C)c(C(=O)NCc4ccccn4)cc3c2=O)o1 [Example 48, 2-methyl-6-((5-methyloxazol-2-yl)methyl)-5-oxo-N-(pyridin-2-ylmethyl)-5,6-dihydro-1,6-naphthyridine-3-carboxamide] | ≤ 5.00
Cc1nc2ccn(Cc3cnn(C)c3)c(=O)c2cc1C(=O)NCc1ccccn1 [Example 49, 2-methyl-6-((1-methyl-1H-pyrazol-4-yl)methyl)-5-oxo-N-(pyridin-2-ylmethyl)-5,6-dihydro-1,6-naphthyridine-3-carboxamide] | ≤ 5.00
Cc1nc2ccn(Cc3ccncc3)c(=O)c2cc1C(=O)NCc1ccccn1 [Example 52, 2-methyl-5-oxo-N-(pyridin-2-ylmethyl)-6-(pyridin-4-ylmethyl)-5,6-dihydro-1,6-naphthyridine-3-carboxamide] | ≤ 5.00
Cc1nc2ccn(C)c(=O)c2cc1C(=O)NCc1ccccn1 [Example 53, 2,6-dimethyl-5-oxo-N-(pyridin-2-ylmethyl)-5,6-dihydro-1,6-naphthyridine-3-carboxamide] | ≤ 5.00
Cc1ccc(Cn2ccc3nc(C)c(C(=O)NCc4ccccn4)cc3c2=O)cc1 [Example 54, 2-methyl-6-(4-methylbenzyl)-5-oxo-N-(pyridin-2-ylmethyl)-5,6-dihydro-1,6-naphthyridine-3-carboxamide] | > 7.00
Cc1nc2ccn(Cc3cccc(F)c3)c(=O)c2cc1C(=O)NCc1ccccn1 [Example 55, 6-(3-fluorobenzyl)-2-methyl-5-oxo-N-(pyridin-2-ylmethyl)-5,6-dihydro-1,6-naphthyridine-3-carboxamide] | > 7.00
Cc1nc2ccn(Cc3ccccc3F)c(=O)c2cc1C(=O)NCc1ccccn1 [Example 56, 6-(2-fluorobenzyl)-2-methyl-5-oxo-N-(pyridin-2-ylmethyl)-5,6-dihydro-1,6-naphthyridine-3-carboxamide] | 6.00 to 7.00
Cc1nc2ccn(Cc3ccccc3)c(=O)c2cc1C(=O)NCc1cc(F)c(Cl)cn1 [Example 57, 6-benzyl-N-((5-chloro-4-fluoropyridin-2-yl)methyl)-2-methyl-5-oxo-5,6-dihydro-1,6-naphthyridine-3-carboxamide] | > 7.00
Cc1nc2ccn(Cc3cccnc3)c(=O)c2cc1C(=O)NCc1ccccn1 [Example 58, 2-methyl-5-oxo-N-(pyridin-2-ylmethyl)-6-(pyridin-3-ylmethyl)-5,6-dihydro-1,6-naphthyridine-3-carboxamide] | ≤ 5.00
COCCOCCOCCn1ccc2nc(C)c(C(=O)NCc3ccc(Cl)cn3)cc2c1=O [Example 59, N-((5-chloropyridin-2-yl)methyl)-6-(2-(2-(2-methoxyethoxy)ethoxy)ethyl)-2-methyl-5-oxo-5,6-dihydro-1,6-naphthyridine-3-carboxamide] | ≤ 5.00
Cc1nc2ccn(CC34CC(C3)C4)c(=O)c2cc1C(=O)NCc1ccccn1 [Example 60, 6-(bicyclo[1.1.1]pentan-1-ylmethyl)-2-methyl-5-oxo-N-(pyridin-2-ylmethyl)-5,6-dihydro-1,6-naphthyridine-3-carboxamide] | 5.00 to 6.00
Cc1nc2ccn(Cc3ccc(F)c(F)c3)c(=O)c2cc1C(=O)NCc1ccccn1 [Example 61, 6-(3,4-difluorobenzyl)-2-methyl-5-oxo-N-(pyridin-2-ylmethyl)-5,6-dihydro-1,6-naphthyridine-3-carboxamide] | > 7.00
Cc1nc2ccn(Cc3ccc(F)c(F)c3)c(=O)c2cc1C(=O)NCc1cc(F)c(F)cn1 [Example 62, 6-(3,4-difluorobenzyl)-N-((4,5-difluoropyridin-2-yl)methyl)-2-methyl-5-oxo-5,6-dihydro-1,6-naphthyridine-3-carboxamide] | > 7.00
Cc1nc2ccn(Cc3ccc(F)c(F)c3)c(=O)c2cc1C(=O)NCc1ccc(F)cn1 [Example 63, 6-(3,4-difluorobenzyl)-N-((5-fluoropyridin-2-yl)methyl)-2-methyl-5-oxo-5,6-dihydro-1,6-naphthyridine-3-carboxamide] | > 7.00
COCCOCCOc1ccc(Cn2ccc3nc(C)c(C(=O)NCc4ccc(Cl)cn4)cc3c2=O)cc1 [Example 64, N-((5-chloropyridin-2-yl)methyl)-6-(4-(2-(2-methoxyethoxy)ethoxy)benzyl)-2-methyl-5-oxo-5,6-dihydro-1,6-naphthyridine-3-carboxamide] | 5.00 to 6.00
